According to ChEMBL document CHEMBL1201862, “PubChem BioAssay data set” (2004):
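Step 1: Grow cells in 96-well plates. Step 2: Expose to compound for 48 hours at 5 concentrations. Step 3: Interpolate endpoints linearly; if unreached, use highest concentration. The concentration for 50% growth inhibition is given as GI50.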 Calls of active or inactive are those of the source. No stated cut-off is given here; in the data, active = GI50 up to about 1.1 µM and inactive = higher.

Experiments:
Test in all cases: growth of human tumour cells (NCI), 48 h
MDA-N = system: MDA-N
SNB-19 = system: SNB-19
EKVX = system: EKVX
CCRF-CEM = system: CCRF-CEM
OVCAR-3 = system: OVCAR-3
Hs-578T = system: Hs-578T
IGROV-1 = system: IGROV-1
MCF7 = system: MCF7
COLO 205 = system: COLO 205
NCI-H23 = system: NCI-H23
SR = system: SR
UO-31 = system: UO-31
ACHN = system: ACHN
A549 = system: A549
SK-MEL-2 = system: SK-MEL-2
SK-MEL-28 = system: SK-MEL-28
SNB-75 = system: SNB-75
A498 = system: A498
NCI-H460 = system: NCI-H460
HOP-62 = system: HOP-62

Compound | GI50 (MDA-N) | GI50 (SNB-19) | GI50 (EKVX) | GI50 (CCRF-CEM) | GI50 (OVCAR-3) | GI50 (Hs-578T) | GI50 (IGROV-1) | GI50 (MCF7) | GI50 (COLO 205) | GI50 (NCI-H23) | GI50 (SR) | GI50 (UO-31) | GI50 (ACHN) | GI50 (A549) | GI50 (SK-MEL-2) | GI50 (SK-MEL-28) | GI50 (SNB-75) | GI50 (A498) | GI50 (NCI-H460) | GI50 (HOP-62)
C=C1C(=O)OC2C1CCC(=C)C1CC(O)C(=C)C12 (stereo not given) | 11 µM (inactive) | 23.8 µM (inactive) | 7.16 µM (inactive) | 2.21 µM (inactive) | 13.3 µM (inactive) | 36.9 µM (inactive) | 14 µM (inactive) | 7.43 µM (inactive) | 2.55 µM (inactive) | 18.7 µM (inactive) | 3.22 µM (inactive) | 15.3 µM (inactive) | 3.18 µM (inactive) | 23.8 µM (inactive) | 14.3 µM (inactive) | 14.4 µM (inactive) | 19.7 µM (inactive) | 20 µM (inactive) | 18 µM (inactive) | 21.2 µM (inactive)
O=C(O)c1cc(/N=N/c2ccc([N+](=O)[O-])cc2)ccc1O | 43.9 µM (inactive) | 30.9 µM (inactive) | 19 µM (inactive) | 28.4 µM (inactive) | 15.6 µM (inactive) | 37.6 µM (inactive) | 40.2 µM (inactive) | 30.8 µM (inactive) | 30.8 µM (inactive) | 40.2 µM (inactive) | 29.4 µM (inactive) | 16.6 µM (inactive) | 37.3 µM (inactive) | 32.6 µM (inactive) | 26.5 µM (inactive) | 37.7 µM (inactive) | 38.7 µM (inactive) | 19.5 µM (inactive) | 28.2 µM (inactive) | 40.6 µM (inactive)
O=C1NC2C(=CC(O)C(O)C2O)c2cc3c(cc21)OCO3 (stereo not given) | 0.0832 µM (active) | 0.244 µM (active) | 0.412 µM (active) | 0.206 µM (active) | 0.372 µM (active) | 0.0794 µM (active) | 0.494 µM (active) | 0.338 µM (active) | 0.2 µM (active) | 0.459 µM (active) | 0.109 µM (active) | 0.564 µM (active) | 0.144 µM (active) | 0.52 µM (active) | 0.351 µM (active) | 0.417 µM (active) | 0.568 µM (active) | 0.759 µM (active) | 0.194 µM (active) | 0.463 µM (active)
COc1nc(N=P(c2ccccc2)(c2ccccc2)c2ccccc2)cc(=O)[nH]1 | > 100 µM (inactive) | > 100 µM (inactive) | > 100 µM (inactive) | > 100 µM (inactive) | > 100 µM (inactive) | > 100 µM (inactive) | > 100 µM (inactive) | > 100 µM (inactive) | > 100 µM (inactive) | > 100 µM (inactive) | > 100 µM (inactive) | > 100 µM (inactive) | > 100 µM (inactive) | > 100 µM (inactive) | > 100 µM (inactive) | > 100 µM (inactive) | > 100 µM (inactive) | > 100 µM (inactive) | > 100 µM (inactive) | > 100 µM (inactive)
O=C(c1cc(Cl)cc(Cl)c1)N1CCN(C(=O)c2cc(Cl)cc(Cl)c2)C1=S | 14.1 µM (inactive) | 18.3 µM (inactive) | 16.8 µM (inactive) | 2.25 µM (inactive) | 10.9 µM (inactive) | 24.2 µM (inactive) | 14.1 µM (inactive) | 3.08 µM (inactive) | 15.9 µM (inactive) | 17.4 µM (inactive) | 3.26 µM (inactive) | 2.31 µM (inactive) | 16 µM (inactive) | 17.7 µM (inactive) | 16.8 µM (inactive) | 23.2 µM (inactive) | 14.1 µM (inactive) | 15.5 µM (inactive) | 16.6 µM (inactive) | 14.8 µM (inactive)
COCCCNC(=O)C1=C(C)NC(C)=C(C(=O)NCCCOC)C1 | > 100 µM (inactive) | > 100 µM (inactive) | 18.6 µM (inactive) | > 100 µM (inactive) | > 100 µM (inactive) | 86.5 µM (inactive) | 11.3 µM (inactive) | > 100 µM (inactive) | > 100 µM (inactive) | > 100 µM (inactive) | > 100 µM (inactive) | 71.4 µM (inactive) | > 100 µM (inactive) | > 100 µM (inactive) | > 100 µM (inactive) | > 100 µM (inactive) | 21 µM (inactive) | > 100 µM (inactive) | > 100 µM (inactive) | > 100 µM (inactive)
COc1cc(OC)c(-c2cc(=O)c3c(OC)c(OC)c(OC)c(OC)c3o2)cc1OC | > 100 µM (inactive) | > 87.7 µM (inactive) | > 100 µM (inactive) | > 28.4 µM (inactive) | 30.2 µM (inactive) | 32 µM (inactive) | > 100 µM (inactive) | > 100 µM (inactive) | > 100 µM (inactive) | 33 µM (inactive) | > 28.3 µM (inactive) | 20.8 µM (inactive) | > 100 µM (inactive) | > 100 µM (inactive) | > 100 µM (inactive) | > 100 µM (inactive) | 14.9 µM (inactive) | > 61.2 µM (inactive) | > 100 µM (inactive) | 36.1 µM (inactive)
O=C1c2ccccc2C(=O)c2sc(Nc3ccc([N+](=O)[O-])cc3)nc21 | 2 µM (inactive) | 10.3 µM (inactive) | 14.7 µM (inactive) | 1.97 µM (inactive) | 2.24 µM (inactive) | 1.32 µM (inactive) | 12.5 µM (inactive) | 9.35 µM (inactive) | 8.59 µM (inactive) | 2.67 µM (inactive) | 2.63 µM (inactive) | 3.87 µM (inactive) | 2.99 µM (inactive) | 17.5 µM (inactive) | 13.6 µM (inactive) | 10.6 µM (inactive) | 7.89 µM (inactive) | 17.2 µM (inactive) | 10 µM (inactive) | 13 µM (inactive)
CC(=O)N1C2=CCCC2(C)c2ccccc21 (stereo not given) | > 100 µM (inactive) | > 100 µM (inactive) | > 100 µM (inactive) | > 100 µM (inactive) | 37.5 µM (inactive) | > 100 µM (inactive) | 63.5 µM (inactive) | > 100 µM (inactive) | 57.9 µM (inactive) | 86.9 µM (inactive) | > 100 µM (inactive) | 57.5 µM (inactive) | > 100 µM (inactive) | 37.7 µM (inactive) | > 100 µM (inactive) | > 100 µM (inactive) | 38.3 µM (inactive) | > 100 µM (inactive) | 72.8 µM (inactive) | > 100 µM (inactive)
COc1ccc2c(=O)cc(-c3ccncc3)oc2c1OC | 29.2 µM (inactive) | 31.4 µM (inactive) | 28.2 µM (inactive) | 29.1 µM (inactive) | 17.5 µM (inactive) | 15.7 µM (inactive) | 20.8 µM (inactive) | 35.7 µM (inactive) | 15 µM (inactive) | 24.6 µM (inactive) | 6.67 µM (inactive) | 19.7 µM (inactive) | 25.7 µM (inactive) | 33.1 µM (inactive) | 25.3 µM (inactive) | 26.5 µM (inactive) | 18.2 µM (inactive) | 14.7 µM (inactive) | 20.7 µM (inactive) | 30.8 µM (inactive)
CCCN(CCC)C(=S)N/N=C(/C)c1ccccc1O | 9.77 µM (inactive) | 14.3 µM (inactive) | 6.31 µM (inactive) | 2.96 µM (inactive) | 2.51 µM (inactive) | > 70 µM (inactive) | 4.43 µM (inactive) | 4.02 µM (inactive) | 6.46 µM (inactive) | 12.1 µM (inactive) | 3.06 µM (inactive) | 4.11 µM (inactive) | 3.97 µM (inactive) | 5.64 µM (inactive) | 6.7 µM (inactive) | 7.28 µM (inactive) | 5.56 µM (inactive) | 14.3 µM (inactive) | 2.51 µM (inactive) | 4.25 µM (inactive)
Cc1cccc(C(=O)O)c1CC1NCCC2c3ccccc3NC12 (stereo not given) | > 100 µM (inactive) | > 100 µM (inactive) | > 100 µM (inactive) | > 100 µM (inactive) | 20.7 µM (inactive) | > 100 µM (inactive) | > 100 µM (inactive) | > 100 µM (inactive) | > 100 µM (inactive) | > 100 µM (inactive) | > 100 µM (inactive) | > 100 µM (inactive) | > 100 µM (inactive) | > 100 µM (inactive) | > 100 µM (inactive) | > 100 µM (inactive) | > 100 µM (inactive) | > 100 µM (inactive) | > 100 µM (inactive) | > 100 µM (inactive)
CCOc1cc(NC(C)=O)ccc1C(=O)NN1C(=O)C(Cl)C1c1ccc(O)c(OC)c1 (stereo not given) | 14.2 µM (inactive) | 15.8 µM (inactive) | 16.1 µM (inactive) | 4.67 µM (inactive) | 20.2 µM (inactive) | 16.7 µM (inactive) | 12.8 µM (inactive) | 13.8 µM (inactive) | 15.6 µM (inactive) | 11.7 µM (inactive) | 4.52 µM (inactive) | 2.43 µM (inactive) | 16.6 µM (inactive) | 16.7 µM (inactive) | 14.8 µM (inactive) | 16.9 µM (inactive) | 11.8 µM (inactive) | 14.6 µM (inactive) | 16.4 µM (inactive) | 16.1 µM (inactive)
C=CCOn1c(C=C)nc2ccc(C)cc21 | 17.1 µM (inactive) | 17.9 µM (inactive) | 19.4 µM (inactive) | 2.44 µM (inactive) | 16 µM (inactive) | 27.2 µM (inactive) | 26.2 µM (inactive) | 10.1 µM (inactive) | 13.6 µM (inactive) | 19.8 µM (inactive) | 7.59 µM (inactive) | 13.6 µM (inactive) | 20.1 µM (inactive) | 22.7 µM (inactive) | 15.5 µM (inactive) | 18.7 µM (inactive) | 16 µM (inactive) | 17.1 µM (inactive) | 13.7 µM (inactive) | 17.9 µM (inactive)
